Laboratory results as given in patent US7056907B2, “Mandelic acid derivatives and their use as thrombin inhibitors” (AstraZeneca AB, priority 2001, dated 2006).

What was measured:
[1] = test system: pooled normal human citrated plasma; assay: Test D: Determination of Activated Partial Thromboplastin Time (APTT); format: biochemical; conditions: read-out: IC50 APTT (concentration of inhibitor in human plasma that doubles the Activated Partial Thromboplastin Time)
Description: Determination of Activated Partial Thromboplastin Time (APTT)
APTT is determined in pooled normal human citrated plasma with the reagent PTT Automated 5 manufactured by Stago. The inhibitors are added to the plasma (10 μL inhibitor solution to 90 μL plasma) and incubated with the APTT reagent for 3 minutes followed by the addition of 100 μL of calcium chloride solution (0.025 M) and APTT is determined by use of the coagulation analyser KC10 (Amelung) according to the instructions of the reagent producer.
(§1) The clotting time is expressed as absolute values (seconds) as well as the ratio of APTT without inhibitor (APTT0) to APTT with inhibitor (APTTi). The latter ratios (range 1–0) are plotted against the concentration of inhibitor (log transformed) and fitted to sigmoidal dose-response curves according to the equation y=a/[1+(x/IC50)^s] where: a=maximum range, i.e. 1; s=slope of the dose-response curve; and IC50=the concentration of inhibitor that doubles the clotting time. The calculations are processed on a PC using the software program GraFit Version 3, setting equation equal to: Start at 0, define end=1 (Erithacus Software, Robin Leatherbarrow, Imperial College of Science, London, UK). IC50APTT is defined as the concentration of inhibitor in human plasma that doubles the Activated Partial Thromboplastin Time. Test E Determination of Thrombin Time ex vivo

[2] = Test E: Determination of Thrombin Time ex vivo (plasma concentration of thrombin inhibitor after oral or parenteral administration); format: in vivo, rat; conditions: conscious rats, plasma analysed by LC-MS/MS
From the text: as §1
The inhibition of thrombin after oral or parenteral administration of the compounds of the invention, dissolved in ethanol:SolutolK:water (5:5:90), is examined in conscious rats which, one or two days prior to the experiment, are equipped with a catheter for blood sampling from the carotid artery. […]
50 μL of plasma samples are precipitated with 100 μL of cold acetonitrile. […] 10 μL volumes of the resulting solutions are analysed by LC-MS/MS and the concentrations of thrombin inhibitor are determined using standard curves.

[3] = Test G: Determination of in vitro Stability, human liver microsomes; format: in vitro ADME; conditions: liver microsomes from humans, 37° C., up to 60 min
Description: (§2) Plasma clearance is estimated in male Sprague Dawley rats. The compound is dissolved in water and administered as a subcutaneous bolus injection at a dose of 4 μmol/kg. Blood samples are collected at frequent intervals up to 5 hours after drug administration. Blood samples are centrifuged and plasma is separated from the blood cells and transferred to vials containing citrate (10% final concentration). 50 μL of plasma samples are precipitated with 100 μL of cold acetonitrile. The samples are centrifuged for 10 minutes at 4000 rpm. 75 μL of the supernatant is diluted with 75 μL of 0.2% formic acid. 10 μL volumes of the resulting solutions are analysed by LC-MS/MS and the concentrations of thrombin inhibitor are determined using standard curves. The area under the plasma concentration-time profile is estimated using the log/linear trapezoidal rule and extrapolated to infinite time. Plasma clearance (CL) of the compound is then determined as CL=Dose/AUC The values are reported in mL/min/kg. Test G Determination of in vitro Stability
(§3) Liver microsomes are prepared from Sprague-Dawley rats and human liver samples according to internal SOPs. […] The concentration of compound remaining (FINAL CONC) in the 60 min. sample is determined by means of LCMS using a sample collected at zero time as reference (START CONC). The % of degraded thrombin inhibitor is calculated as: […]

[4] = Test G: Determination of in vitro Stability, rat liver microsomes; format: in vitro ADME, Sprague-Dawley rats; conditions: liver microsomes from rats, 37° C., up to 60 min
Description: as §2, §3

## N=C(N)c1cc(F)c(CNC(=O)[C@@H]2CCN2C(=O)[C@H](O)c2cc(Cl)cc(OC(F)F)c2)c(F)c1 [Example 1, Ph(3-Cl)(5-OCHF2)—(R)CH(OH)C(O)—(S)Aze-Pab(2,6-diF)]
[1]
  IC50: < 1000 nM

## CO/N=C(\N)c1cc(F)c(CNC(=O)[C@@H]2CCN2C(=O)[C@H](O)c2cc(Cl)cc(OC(F)F)c2)c(F)c1 [Example 2, Ph(3-Cl)(5-OCHF2)—(R)CH(OH)C(O)—(S)Aze-Pab(2,6-diF)(OMe)]
[2]
  oral and/or parenteral bioavailability as the corresponding active inhibitor (free amidine): exhibit oral and/or parenteral bioavailability in the rat as the corresponding active inhibitor (free amidine)
[3]
  conversion to the corresponding active inhibitor (free amidine) in liver microsomes: converted to the corresponding active inhibitor (free amidine)
[4]
  conversion to the corresponding active inhibitor (free amidine) in liver microsomes: converted to the corresponding active inhibitor (free amidine)
